In patent US7196110B2, “N-substituted tricyclic 3-aminopyrazoles as inhibitors for the treatment of cell proliferative disorders” (Janssen Phamaceutica N.V., priority 2002, dated 2007) one finds inhibition and IC50 data, which are given here for 20 compounds.

As a reminder, the inhibition is the relative decrease from the control value, in per cent. The term IC50 denotes the point on the concentration scale where inhibition reaches its midpoint.

The target in experiment [1] is T1, PDGF-receptor beta enzyme comprising the tyrosine kinase domain (Homo sapiens, UniProt P09619).
T1 construct: from amino acid 545 to 1106 of GenBank Access NO: AAA36427
Briefly: Inhibition of PDGF-receptor kinase activity (cell-free, PLC1 peptide, 33P Flashplate). Format: biochemical. To be noted: PDGF-R kinase activity; for inhibition at 10 µM: compound at 10 uM, read-out: Percent Inhibition @ 10 uM; for IC50: read-out: IC50. The procedure, abridged: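 Recombinant kinase domain (aa 545–1106) phosphorylated a biotinylated PLC1 peptide with 5 μM ATP plus 33P-γ-ATP, in Tris pH 8, MgCl2, Na3VO4 and 1 mM DTT, for 60 min at 30 °C. Retained 33P was counted after washing. IC50 is the concentration halving activity versus no-inhibitor reactions.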

The next experiment has as its target c-Abl kinase (Abelson murine leukemia virus, UniProt P00521). Description: Inhibition of c-Abl kinase activity (cell-free, Abl peptide substrate, 33P Flashplate). It counts as biochemical. The conditions noted are these: IC50 for the c-Abl kinase activity. On the procedure:
The inhibitory activity of compounds within the scope of the invention on c-Abl kinase activity was tested according to the following procedure.
• 1. 10× Kinase Buffer [500 mM Tris-HCl pH=8, 100 mM MgCl2, 1 mM Na3VO4] • 2. 10 mM DTT [final concentration 1 mM] • 3. 10 mM ATP [final concentration 5 μM] (Gibco, Cat No:18330-019, Carlsbad, Calif.) • 4. ^33P-γ-ATP [NEG-602H; 2000–3000 Ci/mmol], 2 μCuries per well at 10 μCi/μl (0.2 μl/well) • 5. Abl enzyme (New England Biolabs, Cat No. P6050L, Beverly, Mass.) at 100 Units/μl use 10 Units/well (0.1 μl/well) • 6. Enzyme Dilution Buffer [50 mM Tris-HCl pH=8.0, 0.1% BSA] • 7. Wash/Stop Buffer [PBS+100 mM EDTA] • 8. NEN Streptavidin Flashplates (New England Nuclear, Cat No. SMP-103, Boston, Mass.). • 9. Abl Peptide Substrate (Biotin-[…]-amide) at 1 mM in 50 mM Tris-HCL pH=8.0. (Use at 1.0 μM). Procedure
Reagents were first mixed according to the following regimen:
The above reaction mixture was dispensed into each well of a Flashplate at 70 μl/well. To test the effect of a compound on Abl kinase activity, the test compound either in a fixed concentration or in serially diluted concentrations in 100% DMSO was added to appropriate wells at 1 μl/well.
Enzyme Abl was diluted in enzyme dilution buffer as following:
The kinase reaction was started by adding 30 μl of diluted Abl enzyme solution to each well on the Flashplate containing hot ATP (2 μCi/well) and Abl peptide substrate (at 1 μM final conc.), except wells of column 12 rows E and F, which were used to calculate the plate background. The Flashplate was swirled to mix and was incubated at 30° C. for 60 minutes. Then, the reaction mixture was discarded and the Flashplate was washed 3 times each with 200 μL Wash/Stop Buffer. Subsequently, each well on the Flashplate was filled with 200 μl of Wash/Stop buffer. The amount of ^33P retained in each well was measured using a Packard TopCount after the plate was sealed with a transparent plate sealer.
In order to test the potency of inhibition of present compounds, an IC50 for an individual compound was measured using the above procedure. As used herein, the IC50 for c-Abl kinase activity refers to the concentration of an inhibitor at which the activity of c-Abl kinase is reduced by one-half as compared with reactions containing no inhibitor.

c-Abl kinase, sequence (P00521 115-385): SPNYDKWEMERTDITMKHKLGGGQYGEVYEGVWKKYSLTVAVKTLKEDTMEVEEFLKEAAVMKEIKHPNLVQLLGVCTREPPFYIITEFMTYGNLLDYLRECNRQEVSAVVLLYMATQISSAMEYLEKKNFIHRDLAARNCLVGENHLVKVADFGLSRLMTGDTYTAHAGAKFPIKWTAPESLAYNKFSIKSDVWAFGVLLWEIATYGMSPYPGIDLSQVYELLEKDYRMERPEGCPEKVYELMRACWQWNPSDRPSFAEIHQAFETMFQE
T1 sequence (P09619 545-1106): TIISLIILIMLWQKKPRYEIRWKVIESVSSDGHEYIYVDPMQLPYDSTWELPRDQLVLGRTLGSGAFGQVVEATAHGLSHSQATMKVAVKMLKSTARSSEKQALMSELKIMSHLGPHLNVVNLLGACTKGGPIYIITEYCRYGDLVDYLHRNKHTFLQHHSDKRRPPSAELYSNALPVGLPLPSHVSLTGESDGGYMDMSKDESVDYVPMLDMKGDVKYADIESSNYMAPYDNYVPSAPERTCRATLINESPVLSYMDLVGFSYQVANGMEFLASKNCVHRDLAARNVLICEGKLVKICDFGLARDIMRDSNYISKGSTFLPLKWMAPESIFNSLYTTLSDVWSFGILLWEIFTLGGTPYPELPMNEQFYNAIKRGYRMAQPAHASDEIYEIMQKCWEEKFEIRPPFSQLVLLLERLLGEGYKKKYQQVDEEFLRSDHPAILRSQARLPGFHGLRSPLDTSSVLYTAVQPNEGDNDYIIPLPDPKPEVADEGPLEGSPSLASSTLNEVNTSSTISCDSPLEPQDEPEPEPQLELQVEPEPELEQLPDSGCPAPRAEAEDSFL

Turning to `COc1cc2c(cc1F)Cc1c-2n[nH]c1Nc1ccc(F)c(Cl)c1` [Compound 359, (3-Chloro-4-fluoro-phenyl)-(6-fluoro-7-methoxy-2,4-dihydro-indeno[1,2-c]pyrazol-3-yl)-amine], in experiment [1], the inhibition at 10 µM is 98.5% and the IC50 amounted to 41.5 nM. In addition, the IC50 on c-Abl kinase came out at 143 nM.
The matching figures for `CC(O)c1cccc(Nc2[nH]nc3c2Cc2cc(F)ccc2-3)c1` (stereo not drawn) [Compound 289, 1-[3-(6-Fluoro-2,4-dihydro-indeno[1,2-c]pyrazol-3-ylamino)-phenyl]-ethanol]: 93.5%, 18.5 nM and 2400 nM.
With `Clc1cccc(Nc2[nH]nc3c2Cc2cc4c(cc2-3)OCO4)c1` [Compound 128, (3-Chloro-phenyl)-(2,9-dihydro-5,7-dioxa-2,3-diaza-cyclopenta[a]-s-indacen-1-yl)-amine], in experiment [1], the inhibition at 10 µM is 88% and the IC50 was 59.6 nM. The IC50 at c-Abl kinase was determined as 313 nM.
For `CCOc1cccc(Nc2[nH]nc3c2Cc2cc(OCC)c(OCC(O)CN4CCCC4)cc2-3)c1` (stereo not drawn) [Compound 463, 1-[6-Ethoxy-3-(3-ethoxy-phenylamino)-2,4-dihydro-indeno[1,2-c]pyrazol-7-yloxy]-3-pyrrolidin-1-yl-propan-2-ol], the inhibition at 10 µM in experiment [1] was 98.5%. The IC50 turned out to be 11 nM in experiment [1] and 8 nM at c-Abl kinase.
As for `CCOc1cc2c(cc1OCC(O)CN1CCCC1)-c1n[nH]c(Nc3cccnc3)c1C2` (stereo not drawn) [Compound 461, 1-[6-Ethoxy-3-(pyridin-3-ylamino)-2,4-dihydro-indeno[1,2-c]pyrazol-7-yloxy]-3-pyrrolidin-1-yl-propan-2-ol], in experiment [1], the inhibition at 10 µM amounted to 97.5% and the IC50 came out at 7.55 nM. On c-Abl kinase, the IC50 amounted to 337 nM.
For `COc1cc2c(cc1OCCCO)Cc1c-2n[nH]c1NCc1ccccc1F` [Compound 386, 3-[3-(2-Fluoro-benzylamino)-7-methoxy-2,4-dihydro-indeno[1,2-c]pyrazol-6-yloxy]-propan-1-ol], in experiment [1], the inhibition at 10 µM stood at 95.5%. For the same compound, the IC50 in experiment [1] was 11 nM; on c-Abl kinase it was 20 nM.
The matching figures for `Fc1cccc(Nc2[nH]nc3c2oc2ccccc23)c1` [Compound 380, (3-Fluoro-phenyl)-(2H-8-oxa-2,3-diaza-cyclopenta[a]inden-1-yl)-amine]: 99.5%, 15.3 nM and 327 nM.
The matching figures for `COc1cccc(Nc2[nH]nc3c2Cc2cc(OCCCO)c(OC)cc2-3)c1` [Compound 266, 3-[7-Mehoxy-3-(3-methoxy-phenylamino)-2,4-dihydro-indeno[1,2-c]pyrazol-6-yloxy]-propan-1-ol]: 110%, 1.53 nM and 15 nM.
The matching figures for `COc1cc2c(cc1OCC(O)CO)Cc1c-2n[nH]c1NCc1c(F)cccc1F` (stereo not drawn) [Compound 457, 3-[3-(2,6-Difluoro-benzylamino)-7-methoxy-2,4-dihydro-indeno[1,2-c]pyrazol-6-yloxy]-propane-1,2-diol]: 100%, 3.41 nM and 4 nM.
Regarding `COc1cc2c(cc1OC)C(C)c1c-2n[nH]c1Nc1cccc(Br)c1` (stereo not drawn) [Compound 256, (3-Bromo-phenyl)-(6,7-dimethoxy-4-methyl-2,4-dihydro-indeno[1,2-c]pyrazol-3-yl)-amine], in experiment [1], the inhibition at 10 µM worked out at 89% and the IC50 was determined as 8 nM. Also, the IC50 on c-Abl kinase was determined as 55 nM.
The matching figures for `COc1cc2c(cc1OCC(O)CN1CCCC1)Cc1c-2n[nH]c1Nc1cccc(Cl)c1` (stereo not drawn) [Compound 282, 1-[3-(3-Chloro-phenylamino)-7-methoxy-2,4-dihydro-indeno[1,2-c]pyrazol-6-yloxy]-3-pyrrolidin-1-yl-propan-2-ol]: 99%, 0.089 nM and 43 nM.
The matching figures for `COc1cc2c(cc1OCC(O)CN1CCCC1)Cc1c-2n[nH]c1Nc1cccnc1` (stereo not drawn) [Compound 281, 1-[7-Methoxy-3-(pyridin-3-ylamino)-2,4-dihydro-indeno[1,2-c]pyrazol-6-yloxy]-3-pyrrolidin-1-yl-propan-2-ol]: 67%, 2.6 nM and 1580 nM.
On to `OCCCOc1cc2c(cc1OCCCO)-c1n[nH]c(Nc3cccc(Cl)c3)c1C2` [Compound 373, 3-[3-(3-Chloro-phenylamino)-7-(3-hydroxy-propoxy)-2,4-dihydro-indeno[1,2-c]pyrazol-6-yloxy]-propan-1-ol], for which, in experiment [1], the inhibition at 10 µM is 100%. Also, the IC50 was 3.77 nM in experiment [1] and 10 nM on c-Abl kinase.
The matching figures for `COc1ccc(Nc2[nH]nc3c2Cc2cc(F)ccc2-3)cc1OC` [Compound 205, (3,4-Dimethoxy-phenyl)-(6-fluoro-2,4-dihydro-indeno[1,2-c]pyrazol-3-yl)-amine]: 86%, 47 nM and 328 nM.
The matching figures for `COc1cc2c(cc1OC)-c1n[nH]c(Nc3cccc(C(N)=O)c3)c1C2` [Compound 116, 3-(6,7-Dimethoxy-2,4-dihydro-indeno[1,2-c]pyrazol-3-ylamino)-benzamide]: 96%, 5.3 nM and 386 nM.
The matching figures for `COc1cc2c(cc1OCCCN1CCOCC1)Cc1c-2n[nH]c1Nc1cccc(Br)c1` [Compound 130, (3-Bromo-phenyl)-[7-methoxy-6-(3-morpholin-4-yl-propoxy)-2,4-dihydro-indeno[1,2-c]pyrazol-3-yl]-amine]: 94.5%, 2.15 nM and 236 nM.
As to `COc1cc2c(cc1OC)C(C)c1c-2n[nH]c1Nc1cccc(F)c1` (stereo not drawn) [Compound 249, (6,7-Dimethoxy-4-methyl-2,4-dihydro-indeno[1,2-c]pyrazol-3-yl)-(3-fluoro-phenyl)-amine], in experiment [1], the inhibition at 10 µM came out at 96% and the IC50 worked out at 6 nM. In addition, the IC50 on c-Abl kinase turned out to be 35 nM.
For `CCOc1cccc(Nc2[nH]nc3c2Cc2cc(OCCCO)c(OCCCO)cc2-3)c1` [Compound 401, 3-[3-(3-Ethoxy-phenylamino)-7-(3-hydroxy-propoxy)-2,4-dihydro-indeno[1,2-c]pyrazol-6-yloxy]-propan-1-ol] the same measures were 98.5%, 22 nM and 14 nM.
With `COc1cc2c(cc1OCCCN1CCOCC1)Cc1c-2n[nH]c1Nc1cccc(Cl)c1` [Compound 132, (3-Chloro-phenyl)-[7-methoxy-6-(3-morpholin-4-yl-propoxy)-2,4-dihydro-indeno[1,2-c]pyrazol-3-yl]-amine], in experiment [1], the inhibition at 10 µM was 79% and the IC50 worked out at 5.37 nM. Further, the IC50 on c-Abl kinase is 665 nM.
As to `COc1cc2c(cc1OC)-c1c(c(Nc3cccc(F)c3)nn1C(=O)COC(C)=O)C2` [Compound 467, Acetic acid 2-[3-(3-fluoro-phenylamino)-6,7-dimethoxy-4H-indeno[1,2-c]pyrazol-1-yl]-2-oxo-ethyl ester], in experiment [1], the inhibition at 10 µM was found to be 96.5% and the IC50 was 17.6 nM. Further, the IC50 on c-Abl kinase stood at 244 nM.
